Data published in doi:10.1101/2021.09.30.462449v1 (biorxiv, 2021).

Key:
Assay in all cases: biochemical
Conditions in all cases: read-out: % inhibition mean (Lanthascreen)
ACVRL1 (ALK1) = ACVRL1 (ALK1) (Homo sapiens, UniProt P37023)
ALK L1196M = ALK L1196M (Homo sapiens, UniProt Q9UM73, L1196M)
AMPK (A1/B1/G3) = AMPK (A1/B1/G3) (Homo sapiens, UniProt Q13131)
BMPR2 = BMPR2 (Homo sapiens, UniProt Q13873)
BRSK2 = BRSK2 (Homo sapiens, UniProt Q8IWQ3)
CDK9/cyclin K = CDK9/cyclin K (Homo sapiens, UniProt P50750)
DAPK2 = DAPK2 (Homo sapiens, UniProt Q9UIK4)
DDR2 = DDR2 (Homo sapiens, UniProt Q16832)
DMPK = DMPK (Homo sapiens, UniProt Q09013)
ERN2 = ERN2 (Homo sapiens, UniProt Q76MJ5)
FGFR3 K650M = FGFR3 K650M (Homo sapiens, UniProt P22607, K650M)
KIT N822K = KIT N822K (Homo sapiens, UniProt P10721, N822K)
KIT T670E = KIT T670E (Homo sapiens, UniProt P10721, T670E)
KIT V559D T670I = KIT V559D T670I (Homo sapiens, UniProt P10721, T670I/V559D)
KIT Y823D = KIT Y823D (Homo sapiens, UniProt P10721, Y823D)
LATS2 = LATS2 (Homo sapiens, UniProt Q9NRM7)
[1] = target: MAP2K1 (MEK1) S218D S222D (Homo sapiens, UniProt Q02750, S218D/S222D)
MAP2K5 (MEK5) = MAP2K5 (MEK5) (Homo sapiens, UniProt Q13163)
MAPK15 (ERK7) = MAPK15 (ERK7) (Homo sapiens, UniProt Q8TD08)
MASTL = MASTL (Homo sapiens, UniProt Q96GX5)
MYLK4 = MYLK4 (Homo sapiens, UniProt Q86YV6)
MYO3A (MYO3 alpha) = MYO3A (MYO3 alpha) (Homo sapiens, UniProt Q8NEV4)
NLK = NLK (Homo sapiens, UniProt Q9UBE8)
PRKACG (PRKAC gamma) = PRKACG (PRKAC gamma) (Homo sapiens, UniProt P22612)
SLK = SLK (Homo sapiens, UniProt Q9H2G2)
TGFBR2 = TGFBR2 (Homo sapiens, UniProt P37173)
TNK2 (ACK) = TNK2 (ACK) (Homo sapiens, UniProt Q07912)
ZAK = ZAK (Homo sapiens, UniProt Q9NYL2)

Chain of BRSK2 (Q8IWQ3 whole entry): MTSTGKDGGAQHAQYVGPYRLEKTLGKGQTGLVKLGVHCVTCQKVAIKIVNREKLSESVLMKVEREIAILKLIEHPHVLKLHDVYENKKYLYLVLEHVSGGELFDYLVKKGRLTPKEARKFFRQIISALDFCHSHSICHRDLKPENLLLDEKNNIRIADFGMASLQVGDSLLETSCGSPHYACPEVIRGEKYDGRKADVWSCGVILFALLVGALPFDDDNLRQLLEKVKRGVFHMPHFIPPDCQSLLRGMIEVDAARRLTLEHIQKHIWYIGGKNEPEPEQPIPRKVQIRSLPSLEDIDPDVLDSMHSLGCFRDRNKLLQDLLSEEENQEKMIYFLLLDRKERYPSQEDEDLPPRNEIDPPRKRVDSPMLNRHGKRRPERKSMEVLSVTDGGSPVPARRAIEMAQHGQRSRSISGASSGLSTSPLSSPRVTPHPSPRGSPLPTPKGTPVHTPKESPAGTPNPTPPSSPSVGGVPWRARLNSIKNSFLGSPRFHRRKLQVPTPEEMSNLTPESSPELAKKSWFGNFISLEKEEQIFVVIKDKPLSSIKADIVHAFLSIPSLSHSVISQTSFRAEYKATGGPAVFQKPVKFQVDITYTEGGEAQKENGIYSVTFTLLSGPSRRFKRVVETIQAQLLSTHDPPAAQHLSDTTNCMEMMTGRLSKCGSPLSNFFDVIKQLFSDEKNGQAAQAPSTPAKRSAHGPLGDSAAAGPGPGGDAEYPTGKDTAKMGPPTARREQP
Chain of MYO3A (MYO3 alpha) (Q8NEV4 whole entry): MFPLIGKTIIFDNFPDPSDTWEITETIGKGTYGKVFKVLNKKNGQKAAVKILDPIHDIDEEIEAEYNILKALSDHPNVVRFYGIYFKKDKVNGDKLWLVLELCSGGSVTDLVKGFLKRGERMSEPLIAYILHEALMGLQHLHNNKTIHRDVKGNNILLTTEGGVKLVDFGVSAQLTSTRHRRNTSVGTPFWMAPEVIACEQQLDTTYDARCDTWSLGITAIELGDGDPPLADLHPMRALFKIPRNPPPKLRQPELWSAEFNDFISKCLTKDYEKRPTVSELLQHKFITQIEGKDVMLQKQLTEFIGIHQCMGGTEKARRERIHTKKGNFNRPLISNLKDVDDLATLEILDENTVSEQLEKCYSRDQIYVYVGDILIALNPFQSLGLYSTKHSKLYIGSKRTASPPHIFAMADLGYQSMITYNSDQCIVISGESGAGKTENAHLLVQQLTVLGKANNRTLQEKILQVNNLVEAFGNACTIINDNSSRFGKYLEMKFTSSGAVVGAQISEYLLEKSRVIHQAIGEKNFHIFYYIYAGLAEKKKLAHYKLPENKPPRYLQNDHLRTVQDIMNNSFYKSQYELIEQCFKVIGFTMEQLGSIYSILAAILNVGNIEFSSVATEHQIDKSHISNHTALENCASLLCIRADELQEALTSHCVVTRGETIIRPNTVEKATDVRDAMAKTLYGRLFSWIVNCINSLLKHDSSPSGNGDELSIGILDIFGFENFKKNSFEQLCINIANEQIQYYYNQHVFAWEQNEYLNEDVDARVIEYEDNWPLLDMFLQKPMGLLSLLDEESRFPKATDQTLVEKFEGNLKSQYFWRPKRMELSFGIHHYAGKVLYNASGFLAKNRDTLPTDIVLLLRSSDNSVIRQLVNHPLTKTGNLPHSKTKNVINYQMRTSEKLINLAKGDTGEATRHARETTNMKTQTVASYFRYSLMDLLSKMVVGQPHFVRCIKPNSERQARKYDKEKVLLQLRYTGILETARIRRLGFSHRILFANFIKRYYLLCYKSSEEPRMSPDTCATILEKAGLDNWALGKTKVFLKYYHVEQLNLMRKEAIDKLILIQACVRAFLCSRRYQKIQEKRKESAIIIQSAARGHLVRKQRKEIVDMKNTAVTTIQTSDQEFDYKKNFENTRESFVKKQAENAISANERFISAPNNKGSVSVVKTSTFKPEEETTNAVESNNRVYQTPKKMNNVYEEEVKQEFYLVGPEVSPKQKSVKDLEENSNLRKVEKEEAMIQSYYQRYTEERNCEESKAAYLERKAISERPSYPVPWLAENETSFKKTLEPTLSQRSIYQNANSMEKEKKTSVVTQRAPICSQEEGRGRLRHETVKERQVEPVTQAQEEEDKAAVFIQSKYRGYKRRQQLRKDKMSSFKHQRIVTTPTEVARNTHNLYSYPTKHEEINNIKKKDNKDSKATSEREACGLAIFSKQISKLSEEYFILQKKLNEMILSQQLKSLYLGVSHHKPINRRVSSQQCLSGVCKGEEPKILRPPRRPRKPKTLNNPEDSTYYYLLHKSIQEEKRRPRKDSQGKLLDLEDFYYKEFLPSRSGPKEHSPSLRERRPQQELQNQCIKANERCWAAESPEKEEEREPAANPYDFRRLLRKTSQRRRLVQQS
Chain of BMPR2 (Q13873 whole entry): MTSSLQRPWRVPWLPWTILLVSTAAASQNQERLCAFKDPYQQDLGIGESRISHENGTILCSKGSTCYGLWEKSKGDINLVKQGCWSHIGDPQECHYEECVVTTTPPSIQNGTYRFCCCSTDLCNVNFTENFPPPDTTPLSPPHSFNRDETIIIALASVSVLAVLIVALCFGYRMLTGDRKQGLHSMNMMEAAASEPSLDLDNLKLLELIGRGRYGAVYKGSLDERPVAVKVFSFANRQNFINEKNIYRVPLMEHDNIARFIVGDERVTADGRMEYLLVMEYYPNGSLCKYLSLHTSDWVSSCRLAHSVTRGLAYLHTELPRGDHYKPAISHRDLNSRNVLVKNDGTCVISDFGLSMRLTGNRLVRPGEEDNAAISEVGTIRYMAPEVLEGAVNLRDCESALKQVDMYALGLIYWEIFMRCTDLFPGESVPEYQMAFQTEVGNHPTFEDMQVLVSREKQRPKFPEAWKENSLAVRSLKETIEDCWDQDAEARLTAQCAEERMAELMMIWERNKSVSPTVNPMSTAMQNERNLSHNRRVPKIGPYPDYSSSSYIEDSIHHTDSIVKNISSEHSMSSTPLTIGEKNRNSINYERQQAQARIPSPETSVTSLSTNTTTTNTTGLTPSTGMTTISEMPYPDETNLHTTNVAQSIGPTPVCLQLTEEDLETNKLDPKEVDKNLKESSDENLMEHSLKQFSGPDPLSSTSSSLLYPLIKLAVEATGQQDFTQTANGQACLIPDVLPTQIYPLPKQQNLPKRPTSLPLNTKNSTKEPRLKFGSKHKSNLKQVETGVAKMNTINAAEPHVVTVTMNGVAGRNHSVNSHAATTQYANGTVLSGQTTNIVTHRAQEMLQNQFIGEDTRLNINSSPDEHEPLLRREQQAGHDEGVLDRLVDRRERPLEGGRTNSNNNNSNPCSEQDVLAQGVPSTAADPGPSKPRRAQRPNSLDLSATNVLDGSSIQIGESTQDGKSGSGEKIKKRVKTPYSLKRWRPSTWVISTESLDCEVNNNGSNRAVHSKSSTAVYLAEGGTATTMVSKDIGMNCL
Chain of ERN2 (Q76MJ5 whole entry): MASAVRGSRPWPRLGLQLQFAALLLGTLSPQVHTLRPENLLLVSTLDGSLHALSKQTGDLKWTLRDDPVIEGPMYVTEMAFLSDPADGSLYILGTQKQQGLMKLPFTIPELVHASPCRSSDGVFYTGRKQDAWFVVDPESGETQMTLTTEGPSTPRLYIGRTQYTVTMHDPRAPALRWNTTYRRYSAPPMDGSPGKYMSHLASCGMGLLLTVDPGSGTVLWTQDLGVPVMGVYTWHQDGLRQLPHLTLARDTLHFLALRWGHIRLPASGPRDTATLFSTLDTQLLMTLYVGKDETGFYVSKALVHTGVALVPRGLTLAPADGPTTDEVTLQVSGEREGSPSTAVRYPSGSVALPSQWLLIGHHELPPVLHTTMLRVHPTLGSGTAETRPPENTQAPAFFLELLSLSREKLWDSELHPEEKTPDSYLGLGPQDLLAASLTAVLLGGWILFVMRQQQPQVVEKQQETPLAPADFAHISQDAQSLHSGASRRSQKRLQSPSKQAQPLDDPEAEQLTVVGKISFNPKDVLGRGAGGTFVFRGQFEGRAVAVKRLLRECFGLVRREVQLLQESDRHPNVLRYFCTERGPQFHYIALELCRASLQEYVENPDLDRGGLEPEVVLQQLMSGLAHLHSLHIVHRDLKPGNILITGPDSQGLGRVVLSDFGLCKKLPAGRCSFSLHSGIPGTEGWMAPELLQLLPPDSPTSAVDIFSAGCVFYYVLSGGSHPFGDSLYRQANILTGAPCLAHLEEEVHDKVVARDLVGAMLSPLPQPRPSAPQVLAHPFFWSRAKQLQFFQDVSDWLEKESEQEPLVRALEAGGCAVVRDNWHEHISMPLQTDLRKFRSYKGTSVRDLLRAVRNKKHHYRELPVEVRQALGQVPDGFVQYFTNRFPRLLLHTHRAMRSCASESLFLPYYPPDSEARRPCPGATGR
Chain of FGFR3 K650M (P22607 whole entry K650M): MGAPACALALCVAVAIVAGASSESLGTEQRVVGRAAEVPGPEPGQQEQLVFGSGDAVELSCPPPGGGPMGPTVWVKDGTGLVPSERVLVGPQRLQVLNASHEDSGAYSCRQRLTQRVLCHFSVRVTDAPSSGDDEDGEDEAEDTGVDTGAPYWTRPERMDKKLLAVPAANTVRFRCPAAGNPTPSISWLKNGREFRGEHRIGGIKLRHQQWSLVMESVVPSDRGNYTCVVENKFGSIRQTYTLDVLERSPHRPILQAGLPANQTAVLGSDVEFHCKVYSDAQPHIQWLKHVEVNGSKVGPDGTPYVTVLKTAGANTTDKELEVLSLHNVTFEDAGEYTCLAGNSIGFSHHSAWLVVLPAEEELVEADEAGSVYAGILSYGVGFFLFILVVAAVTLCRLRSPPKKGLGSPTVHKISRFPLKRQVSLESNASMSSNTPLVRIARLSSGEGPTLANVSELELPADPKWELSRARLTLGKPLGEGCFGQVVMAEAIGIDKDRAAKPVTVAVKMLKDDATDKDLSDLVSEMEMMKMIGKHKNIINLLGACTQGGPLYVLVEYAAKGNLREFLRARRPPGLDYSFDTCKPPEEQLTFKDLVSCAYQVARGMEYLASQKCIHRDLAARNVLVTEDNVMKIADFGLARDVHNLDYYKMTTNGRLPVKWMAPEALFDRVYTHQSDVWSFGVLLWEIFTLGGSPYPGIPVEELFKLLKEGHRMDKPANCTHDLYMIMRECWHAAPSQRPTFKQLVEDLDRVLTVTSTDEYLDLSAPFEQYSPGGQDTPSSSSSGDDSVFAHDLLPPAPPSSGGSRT

With `COc1ccc2nc3cc(Cl)ccc3c(Nc3cc(CN4CCCC4)c(O)c(CN4CCCC4)c3)c2n1` [Pyronaridine, 4-[(7-Chloro-2-methoxybenzo[b][1,5]naphthyridin-10-yl)amino]-2,6-bis(1-pyrrolidinylmethyl)phenol phosphate (1:4)] the inhibition at 1 µM (ACVRL1 (ALK1)) was 12%, the inhibition at 1 µM (ALK L1196M) was -3% and the inhibition at 1 µM (AMPK (A1/B1/G3)) was -1%. The inhibition at 1 µM (BMPR2) was 8%, the inhibition at 1 µM (BRSK2) was 4% and the inhibition at 1 µM (CDK9/cyclin K) was 5%. It also gave an inhibition at 1 µM (DAPK2) of -6%, an inhibition at 1 µM (DDR2) of 0% and an inhibition at 1 µM (DMPK) of 4%. For the same molecule, the inhibition at 1 µM (ERN2) was 6%, the inhibition at 1 µM (FGFR3 K650M) was -4% and the inhibition at 1 µM (KIT N822K) was 14%. The inhibition at 1 µM (KIT T670E) was 1%, the inhibition at 1 µM (KIT V559D T670I) was -10% and the inhibition at 1 µM (KIT Y823D) was -4%. It also gave an inhibition at 1 µM (LATS2) of -4%, an inhibition at 1 µM [1] of 3% and an inhibition at 1 µM (MAP2K5 (MEK5)) of 1%. It also gave an inhibition at 1 µM (MAPK15 (ERK7)) of -11%, an inhibition at 1 µM (MASTL) of 3% and an inhibition at 1 µM (MYLK4) of -9%. It also gave an inhibition at 1 µM (MYO3A (MYO3 alpha)) of -6%, an inhibition at 1 µM (NLK) of 8% and an inhibition at 1 µM (PRKACG (PRKAC gamma)) of 2%. For the same molecule, the inhibition at 1 µM (SLK) was -1%, the inhibition at 1 µM (TGFBR2) was -4% and the inhibition at 1 µM (TNK2 (ACK)) was 1%. It also gave an inhibition at 1 µM (ZAK) of 0%.
